Measurements: ChEMBL document CHEMBL1201862, “PubChem BioAssay data set” (2004)
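Step 1: Grow cells in 96-well plates. Step 2: Expose to compound for 48 hours at 5 concentrations. Step 3: Interpolate endpoints linearly; if unreached, use highest concentration. GI50 marks 50% less growth.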 Active and inactive are the calls of the source. No stated cut-off is given here; in the data, active = GI50 up to about 1.1 µM and inactive = higher.

Experiments:
Experiment in all cases: NCI tumour cell line growth inhibition, 48 h
A498 = test system: A498
HCC 2998 = test system: HCC 2998
HCT-15 = test system: HCT-15
IGROV-1 = test system: IGROV-1
NCI-H23 = test system: NCI-H23
OVCAR-3 = test system: OVCAR-3
SF-268 = test system: SF-268
SF-295 = test system: SF-295
SK-MEL-28 = test system: SK-MEL-28
SNB-19 = test system: SNB-19
SNB-75 = test system: SNB-75
SW-620 = test system: SW-620
TK-10 = test system: TK-10
U-251 = test system: U-251
UO-31 = test system: UO-31
CCRF-CEM = test system: CCRF-CEM

Row | SMILES | GI50 (A498) | GI50 (HCC 2998) | GI50 (HCT-15) [µM] | GI50 (IGROV-1) | GI50 (NCI-H23) | GI50 (OVCAR-3) | GI50 (SF-268) | GI50 (SF-295) | GI50 (SK-MEL-28) | GI50 (SNB-19) | GI50 (SNB-75) | GI50 (SW-620) | GI50 (TK-10) | GI50 (U-251) | GI50 (UO-31) | GI50 (CCRF-CEM)
1 | CCOC(=O)[C@H]1Nc2ccc(OC)cc2C2c3ccccc3CC21 (stereo partly specified) | > 100 µM (inactive) | 46.8 µM (inactive) | > 100 | > 100 µM (inactive) | > 100 µM (inactive) | > 100 µM (inactive) | > 100 µM (inactive) | > 100 µM (inactive) | > 100 µM (inactive) | > 100 µM (inactive) | 83.9 µM (inactive) | > 100 µM (inactive) | > 100 µM (inactive) | > 100 µM (inactive) | > 100 µM (inactive) | 
2 | Cc1nc(O)nc(CC(O)(c2ccccc2)c2ccccc2)c1-c1ccccc1 | > 100 µM (inactive) | > 100 µM (inactive) | > 100 | > 100 µM (inactive) | > 100 µM (inactive) | > 100 µM (inactive) | > 100 µM (inactive) | > 100 µM (inactive) | > 100 µM (inactive) | > 100 µM (inactive) | 52.6 µM (inactive) | > 100 µM (inactive) | > 100 µM (inactive) | > 100 µM (inactive) | 50.1 µM (inactive) | > 100 µM (inactive)
3 | CS/C(=N/C(=O)c1ccccc1Cl)SCCS/C(=N\C(=O)c1ccccc1Cl)SC | > 100 µM (inactive) | > 100 µM (inactive) | > 100 | > 100 µM (inactive) | > 100 µM (inactive) | > 100 µM (inactive) | > 100 µM (inactive) | > 100 µM (inactive) | > 100 µM (inactive) | > 100 µM (inactive) | > 100 µM (inactive) | > 100 µM (inactive) | > 100 µM (inactive) | > 100 µM (inactive) | > 100 µM (inactive) | > 100 µM (inactive)
4 | CN(C)CCSc1nccc(-c2cc3ccccc3s2)n1 | 20.1 µM (inactive) | 15.7 µM (inactive) | 18.6 | 42.3 µM (inactive) | > 10 µM (inactive) | 44.5 µM (inactive) |  | 16.2 µM (inactive) | 20 µM (inactive) |  | 54 µM (inactive) | 19 µM (inactive) | > 10 µM (inactive) | 20.2 µM (inactive) | 19.1 µM (inactive) | 20 µM (inactive)
5 | Cc1nc2c(n1CC(C)(C)C)C(=O)c1ccccc1C2=O |  | > 100 µM (inactive) | > 100 | > 100 µM (inactive) | > 100 µM (inactive) | 66.7 µM (inactive) | > 100 µM (inactive) | > 100 µM (inactive) | > 100 µM (inactive) | > 100 µM (inactive) | > 100 µM (inactive) | > 100 µM (inactive) | > 100 µM (inactive) | > 100 µM (inactive) | > 100 µM (inactive) | > 100 µM (inactive)
6 | CNS(=O)(=O)NNS(=O)(=O)c1cccc([N+](=O)[O-])c1 |  | > 100 µM (inactive) | > 100 | > 100 µM (inactive) | > 100 µM (inactive) | > 100 µM (inactive) |  | > 100 µM (inactive) |  | > 100 µM (inactive) | > 100 µM (inactive) | > 100 µM (inactive) | > 100 µM (inactive) | > 100 µM (inactive) | > 100 µM (inactive) | > 100 µM (inactive)
7 | N#Cc1ccc(Nc2cnc3cc(N)ccc3n2)cc1 |  | > 100 µM (inactive) | > 100 |  | > 100 µM (inactive) | 95.9 µM (inactive) | > 100 µM (inactive) | > 100 µM (inactive) | > 100 µM (inactive) | 71.4 µM (inactive) | > 100 µM (inactive) | > 100 µM (inactive) | > 100 µM (inactive) | > 100 µM (inactive) | 56 µM (inactive) | 33 µM (inactive)
8 | COC(=O)c1ccc(C(=O)OC)c2nc3cc(Cl)ccc3nc12 | > 100 µM (inactive) | > 100 µM (inactive) | > 100 | > 100 µM (inactive) | > 100 µM (inactive) | > 100 µM (inactive) | > 100 µM (inactive) | > 100 µM (inactive) | > 100 µM (inactive) | > 100 µM (inactive) | > 100 µM (inactive) | > 100 µM (inactive) | > 100 µM (inactive) | > 100 µM (inactive) | > 100 µM (inactive) | > 100 µM (inactive)
9 | NCCNc1cccc2ccccc12 | > 100 µM (inactive) | > 100 µM (inactive) | > 100 | > 100 µM (inactive) | > 100 µM (inactive) | > 100 µM (inactive) | > 100 µM (inactive) | > 100 µM (inactive) |  | > 100 µM (inactive) |  | > 100 µM (inactive) | > 100 µM (inactive) | > 100 µM (inactive) | > 100 µM (inactive) | 
10 | CCOC(=O)C1=C(C)N(NC(=O)Nc2ccccc2)C2(N)N(NC(=O)Nc3ccccc3)C(C)=C(C(=O)OCC)C12C#N (stereo unspecified) | 22.3 µM (inactive) | 19.2 µM (inactive) | 19.4 | 19.7 µM (inactive) | 22.3 µM (inactive) | 17.5 µM (inactive) | 19.9 µM (inactive) |  | 16.9 µM (inactive) |  | 18.9 µM (inactive) | 18.9 µM (inactive) | 25.2 µM (inactive) | 18.4 µM (inactive) | > 100 µM (inactive) | 28.2 µM (inactive)
11 | C/C(CC(=O)Nc1ccc(C)c(C)c1)=N\NC(N)=O | > 100 µM (inactive) | > 100 µM (inactive) |  | > 100 µM (inactive) | > 100 µM (inactive) | > 100 µM (inactive) | > 100 µM (inactive) | > 100 µM (inactive) | > 100 µM (inactive) |  | > 100 µM (inactive) | > 100 µM (inactive) | > 100 µM (inactive) | > 100 µM (inactive) | > 100 µM (inactive) | > 100 µM (inactive)
12 | CC1=NN(C(=O)c2ccncc2)C(=O)C1/N=N/c1ccc(F)cc1 (stereo unspecified) | 60.5 µM (inactive) |  | > 100 | > 100 µM (inactive) | > 100 µM (inactive) | > 100 µM (inactive) | > 100 µM (inactive) | > 100 µM (inactive) | > 100 µM (inactive) | > 100 µM (inactive) | 21.5 µM (inactive) | > 100 µM (inactive) | > 100 µM (inactive) |  | 45.3 µM (inactive) | 
13 | C/C(=N\NC(=N)N)C(CN1CCOCC1)C(c1ccccc1)c1c(O)c2ccccc2oc1=O (stereo unspecified) |  | > 100 µM (inactive) | > 100 | > 100 µM (inactive) | 76.7 µM (inactive) | > 100 µM (inactive) | > 100 µM (inactive) | > 100 µM (inactive) | > 100 µM (inactive) | > 100 µM (inactive) | 24.9 µM (inactive) | > 100 µM (inactive) | > 100 µM (inactive) | > 100 µM (inactive) |  | > 100 µM (inactive)
14 | Cc1nc2nnc(C)n2c2c1C(=O)Nc1ccccc1N2 |  | > 100 µM (inactive) |  | > 100 µM (inactive) | > 100 µM (inactive) | > 100 µM (inactive) | > 100 µM (inactive) | > 100 µM (inactive) | > 100 µM (inactive) | > 100 µM (inactive) | > 100 µM (inactive) | > 100 µM (inactive) | > 100 µM (inactive) | > 100 µM (inactive) | > 100 µM (inactive) | > 100 µM (inactive)
